Here are results for one compound from ChEMBL document CHEMBL3091331, “Aminothiazole-featured pirinixic acid derivatives as dual 5-lipoxygenase and microsomal prostaglandin E2 synthase-1 inhibitors with improved potency and efficiency in vivo” (J Med Chem, 2013).

The test system of data set [1] is Mus musculus. The experiment in a line: Antiinflammatory activity in CD-1 mouse peritonitis model assessed as reduction in vascular permeability at 10 mg/kg, ip administered 30 mins prior to zymosan-challenge measured after 4 hrs relative to vehicle-treated control. To be noted: CD-1, ip, route intraperitoneal. It is filed as functional.
For data set [2], the system named is Mus musculus. The experiment in a line: Reduction of 6-keto […] formation in CD-1 mouse peritonitis model at 10 mg/kg, ip administered 30 mins prior to zymosan-challenge measured after 4 hrs by EIA (reference value: 3.89 +/- 0.58 ng/ml). It is filed as functional, organism-based. More on the design: dose 10 mg/kg.
For data set [3], the species on record is Homo sapiens. The experiment in a line: Translocation of 5-lipoxygenase from cytosol into nuclear membrane in A23187-stimulated human polymorphonuclear leukocytes assessed as enzyme product formation at 10 uM incubated for 15 mins prior to A23187-challenge measured after 5 mins by Western blotting analysis. It is filed as functional.
Data set [4] in a line: (§1) Inhibition of reactive oxygen species generation in PMA-stimulated human polymorphonuclear leukocytes incubated for 15 mins prior to PMA-challenge by fluorescence assay. The data set is classed as functional.
Data set [5] is filed under the species Homo sapiens. The data set is described as §1. The data set is classed as functional.
Data set [6] is described as follows: (§2) Inhibition of reactive oxygen species generation in fMLP-stimulated human polymorphonuclear leukocytes incubated for 15 mins prior to fMLP-challenge by fluorescence assay. It is filed as functional.
Data set [7] is filed under the species Homo sapiens. Described as §2. The data set is classed as functional.
Data set [8] addresses T1, Prostaglandin G/H synthase 1 (Ovis aries) (UniProt P05979).
T1 sequence (whole entry): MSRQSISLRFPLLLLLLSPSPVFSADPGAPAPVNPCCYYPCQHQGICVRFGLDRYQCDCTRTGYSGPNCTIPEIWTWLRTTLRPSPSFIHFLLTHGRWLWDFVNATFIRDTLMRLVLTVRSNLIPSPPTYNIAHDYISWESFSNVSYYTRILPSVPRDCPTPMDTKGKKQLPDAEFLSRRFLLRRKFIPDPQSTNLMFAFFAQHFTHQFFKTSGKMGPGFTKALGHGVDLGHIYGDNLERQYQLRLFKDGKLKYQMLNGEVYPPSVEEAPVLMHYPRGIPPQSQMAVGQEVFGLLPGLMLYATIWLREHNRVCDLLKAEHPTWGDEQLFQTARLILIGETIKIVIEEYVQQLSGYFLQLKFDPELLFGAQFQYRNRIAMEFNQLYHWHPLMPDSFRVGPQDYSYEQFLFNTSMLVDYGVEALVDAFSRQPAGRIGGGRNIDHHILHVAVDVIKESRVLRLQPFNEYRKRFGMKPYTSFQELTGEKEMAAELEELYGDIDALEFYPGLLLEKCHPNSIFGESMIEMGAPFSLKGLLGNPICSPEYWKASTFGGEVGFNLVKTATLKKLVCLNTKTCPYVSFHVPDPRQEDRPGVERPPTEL
The experiment in a line: Inhibition of ovine COX1 using arachidonic acid as substrate at 10 uM incubated 5 mins prior to substrate addition measured after 5 mins by HPLC analysis.

For data set [9], the target named is T2, Polyunsaturated fatty acid lipoxygenase ALOX15 (Homo sapiens) (UniProt P16050).
T2 sequence (whole entry): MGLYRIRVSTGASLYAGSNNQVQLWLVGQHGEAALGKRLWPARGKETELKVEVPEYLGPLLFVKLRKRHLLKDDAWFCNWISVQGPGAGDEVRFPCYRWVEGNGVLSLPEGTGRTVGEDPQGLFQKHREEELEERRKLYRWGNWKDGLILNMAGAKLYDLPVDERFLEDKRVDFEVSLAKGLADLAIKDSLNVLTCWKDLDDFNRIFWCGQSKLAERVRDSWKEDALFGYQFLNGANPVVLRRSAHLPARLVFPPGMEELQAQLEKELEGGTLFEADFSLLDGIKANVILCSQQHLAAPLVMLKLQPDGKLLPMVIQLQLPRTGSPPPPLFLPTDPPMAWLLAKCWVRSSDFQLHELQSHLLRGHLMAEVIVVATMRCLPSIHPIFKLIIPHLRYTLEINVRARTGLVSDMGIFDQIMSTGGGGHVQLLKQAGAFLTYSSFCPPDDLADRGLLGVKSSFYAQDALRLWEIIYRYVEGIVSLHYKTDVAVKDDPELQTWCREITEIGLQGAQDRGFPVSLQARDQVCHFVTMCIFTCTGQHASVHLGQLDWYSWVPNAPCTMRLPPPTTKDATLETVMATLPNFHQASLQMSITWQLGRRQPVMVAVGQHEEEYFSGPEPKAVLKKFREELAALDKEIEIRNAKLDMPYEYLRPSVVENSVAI
The experiment in a line: Inhibition of 15-lipoxygenase in human polymorphonuclear leukocytes using arachidonic acid as substrate assessed as remaining activity at 10 uM incubated 15 mins prior to substrate addition measured after 10 mins by HPLC analysis relative to control. It is filed as cell-based.

Data set [10] in a line: Cytotoxicity against human polymorphonuclear leukocytes at 10 uM after 1 hr by trypan blue staining.
For data set [11], the target named is T3, Polyunsaturated fatty acid 5-lipoxygenase (Homo sapiens, UniProt P09917).
T3 sequence (P09917 whole entry): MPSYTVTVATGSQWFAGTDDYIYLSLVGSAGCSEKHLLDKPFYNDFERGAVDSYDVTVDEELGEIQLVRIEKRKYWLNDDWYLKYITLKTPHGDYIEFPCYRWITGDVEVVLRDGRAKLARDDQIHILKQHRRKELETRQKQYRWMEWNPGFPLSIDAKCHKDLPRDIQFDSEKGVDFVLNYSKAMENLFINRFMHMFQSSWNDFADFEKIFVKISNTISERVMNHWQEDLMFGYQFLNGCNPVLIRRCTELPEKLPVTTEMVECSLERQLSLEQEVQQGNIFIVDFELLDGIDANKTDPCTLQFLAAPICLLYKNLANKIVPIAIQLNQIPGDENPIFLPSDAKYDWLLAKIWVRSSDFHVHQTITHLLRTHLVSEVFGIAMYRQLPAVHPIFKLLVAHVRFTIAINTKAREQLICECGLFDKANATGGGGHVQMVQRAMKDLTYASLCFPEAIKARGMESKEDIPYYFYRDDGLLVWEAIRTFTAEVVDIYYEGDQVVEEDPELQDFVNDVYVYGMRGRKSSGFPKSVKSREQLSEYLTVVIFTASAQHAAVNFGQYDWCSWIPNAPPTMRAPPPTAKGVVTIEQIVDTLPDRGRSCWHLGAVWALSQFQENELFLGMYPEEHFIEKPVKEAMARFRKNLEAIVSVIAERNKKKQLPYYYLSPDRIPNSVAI
Description: Inhibition of human recombinant 5-lipoxygenase expressed in Escherichia coli BL21 using arachidonic acid as substrate incubated 5 to 10 mins prior to substrate addition measured after 10 mins by HPLC analysis.

Data set [12] addresses T3, Polyunsaturated fatty acid 5-lipoxygenase. The experiment in a line: Inhibition of 5-lipoxygenase in A23187-stimulated human polymorphonuclear leukocytes using arachidonic acid as substrate incubated 15 mins prior to substrate addition measured after 10 mins by HPLC analysis.
Data set [13] in a line: Cytotoxicity against human polymorphonuclear leukocytes at 10 uM after 1 hr by light microscopic analysis.

The source made the active and inactive calls. No cut-off for these calls is given here.

The inhibition in vivo is the share of the control response that was lost under treatment. The term inhibition denotes the percentage by which the read-out fell short of the control. Usually IC50 stands for the concentration that inhibits the measured activity by half. Regarding `CCCCCCC(Sc1nc(Cl)cc(Nc2nc(-c3ccc4ccccc4c3)cs2)n1)C(=O)O` (racemic), the inhibition in vivo at 10 mg/kg in data set [1] stood at 57%. In addition, the inhibition entry in data set [2] was “inactive”. Besides, in data set [3], the outcome was inactive. Moreover, the IC50 came to 8 µM in [4], 3 µM in [6], 0.3 µM in data set [11] and 0.2 µM in data set [12]. The inhibition entry in [5] was “Dose-dependent effect”; in data set [7], “Dose-dependent effect”; in data set [8] it was 39%. Also, the Activity in [9] was 84%; in data set [10], “Non-toxic”; in data set [13] it was “Non-toxic”.
